# Patent publication US6334944B1, “Process for producing an amino acid-N,N-diacetic acid and its salts” (Showa Denko K.K., priority 1998, dated 2002)
# Experiment: Hygroscopicity and redissolution of dried powder or crystal
# Assay type: physicochemical
# Conditions: for Hygroscopicity: dried powder or crystal
# Protocol: The powder contained 9.98% of calcium.
# The crystal was dried in air at 25° C. to reduce the moisture content to 0.7%.
Molecule,Hygroscopicity,Dissolution of powder in water (spray-dried powder)
"O=C([O-])CCC(C(=O)[O-])N(CC(=O)[O-])CC(=O)[O-].[Fe+3].[NH4+] (stereo not drawn) [Example 22, ammonium ferric salt of glutamic acid-N,N-diacetic acid]",free of hygroscopicity,–
"calcium disodium glutamic acid-N,N-diacetate [Example 13]",free of hygroscopicity,readily dissolved in water
